Consider 30 compounds from PubChem BioAssay AID1259408 (Genetic Toxicology Data Bank (GENE-TOX), 2018).

Calls of active or inactive are those of the source. No rule for the calls is given here.

This series concerns GENE-TOX genotoxicity assays, various organisms and cells. The series can be described thus: GENE-TOX mutagenicity studies.
The mark [1] stands for this setting: Species/Cell Type: Allium cepa, Assay Type: Chromosome aberrations, Assay Code: ALC+, Evaluation Type: Evaluation A (Pre-1980).
The mark [2] stands for this setting: Species/Cell Type: Drosophila melanogaster, Assay Type: Sex-linked recessive lethal gene mutation, Assay Code: SRLT, Evaluation Type: Evaluation A (Pre-1980).
[3] abbreviates: Species/Cell Type: Salmonella typhimurium (one or more of the five standard strains: TA98, TA100, TA1535, TA1537, and TA1538), Assay Type: Histidine reverse gene mutation, Ames assay, Assay Code: SAL+, Evaluation Type: Evaluation A (Pre-1980).
The mark [4] stands for this setting: Species/Cell Type: Nonhuman, Assay Type: Sister-chromatid exchange (SCE) in vitro, Assay Code: SC2+D, Dose Response: With dose response, Evaluation Type: Evaluation B (Post-1980).
The mark [5] stands for this setting: Species/Cell Type: Human, Assay Type: Sister-chromatid exchange (SCE) in vitro, Assay Code: SC1T, Evaluation Type: Evaluation B (Post-1980).
Where [6] appears, read: Species/Cell Type: Saccharomyces cerevisiae, Assay Type: Mitotic recombination or gene conversion, Assay Code: YEC-, Evaluation Type: Evaluation A (Pre-1980).
Where [7] appears, read: Species/Cell Type: Salmonella typhimurium (one or more of the five standard strains: TA98, TA100, TA1535, TA1537, and TA1538), Assay Type: Histidine reverse gene mutation, Ames assay, Assay Code: SALT, Evaluation Type: Evaluation A (Pre-1980).
Where [8] appears, read: Species/Cell Type: Bacillus subtilis (H17 vs M45), Assay Type: Rec-assay, spot test, DNA effects (bacterial DNA repair), Assay Code: REWT, Evaluation Type: Evaluation A (Pre-1980).
[9] abbreviates: Species/Cell Type: Salmonella typhimurium (one or more of the five standard strains: TA98, TA100, TA1535, TA1537, and TA1538), Assay Type: Histidine reverse gene mutation, Ames assay, Assay Code: SAL-, Evaluation Type: Evaluation A (Pre-1980).
The mark [10] stands for this setting: Species/Cell Type: Human, Assay Type: Sister-chromatid exchange (SCE) in vitro, Assay Code: SC1+D, Dose Response: With dose response, Evaluation Type: Evaluation B (Post-1980).

For the compound `C=CC1C(C)OC(=O)C1C(C)=O` (centres undefined), the mutagenic call under setting [1] was “active; positive”.
In the case of `C1O[C@@H]1[C@@H]1CO1`, the mutagenic call is, setting by setting: (Species/Cell Type: Arabidopsis species, Assay Type: Gene mutation, Assay Code: ARM+, Evaluation Type: Evaluation A (Pre-1980)) “active; positive”; (Species/Cell Type: Schizosaccharomyces pombe, Assay Type: Reverse gene mutation, Assay Code: YEZ+, Evaluation Type: Evaluation A (Pre-1980)) “active; positive”; (Species/Cell Type: Zea mays (corn), Assay Type: Gene mutation, Assay Code: ZEM+, Evaluation Type: Evaluation A (Pre-1980)) “active; positive”.
Consider `CN(C)c1ccc(/C=C/c2ccccc2)cc1`, for which the mutagenic call under setting [2] is “no conclusion”.
As for `CC(C)Cl`, the mutagenic call reads like this: (Species/Cell Type: Saccharomyces cerevisiae, Assay Type: Mitotic recombination or gene conversion, Assay Code: YEH-, Evaluation Type: Evaluation A (Pre-1980)) “inactive; negative”; under setting [3], “active; positive”.
On to `CC(=O)C1COC(O)C1C` (centres undefined), for which the mutagenic call under setting [4] is “active; positive”.
On to `CCN(CC)CCOc1ccc2c(c1)C(=O)c1cc(OCCN(CC)CC)ccc1-2`, for which the mutagenic call is “inactive; negative” (Species/Cell Type: Mouse (C3H/10T1/2) cells, Assay Type: Cell transformation, Assay Code: CTH-, Evaluation Type: Evaluation A (Pre-1980)); “inactive; negative” (Species/Cell Type: Nonhuman, Assay Type: Sister-chromatid exchange (SCE) in vitro, Assay Code: SC2-, Evaluation Type: Evaluation A (Pre-1980)); “no conclusion” (Species/Cell Type: Nonhuman, Assay Type: Sister-chromatid exchange (SCE) in vitro, Assay Code: SC2T, Evaluation Type: Evaluation B (Post-1980)); “active; positive” under setting [3].
On to `C[C@@H]1C[C@@]2(O[C@H]2C)C(=O)O[C@@H]2CCN3CC=C(COC(=O)[C@]1(C)O)[C@H]23`, for which the mutagenic call under setting [1] is “active; positive” and the mutagenic call under setting [2] is recorded as “no conclusion”.
As to `NC(Cc1cccc(F)c1)C(=O)O` (centres undefined), for the setting “Species/Cell Type: Neurospora crassa, Assay Type: Aneuploidy, chromosome aberrations, Assay Code: NEN-, Evaluation Type: Evaluation A (Pre-1980)”, the mutagenic call is “inactive; negative”.
For `CC(C)C[C@H](NP(=O)(O)O[C@@H]1O[C@@H](C)[C@H](O)[C@@H](O)[C@H]1O)C(=O)N[C@@H](Cc1c[nH]c2ccccc12)C(=O)O`, under setting [5], the mutagenic call is reported as “no conclusion”.
Take `O=S(=O)(O)c1ccc2c(N=Nc3ccccc3)c(O)ccc2c1`: the mutagenic call under setting [6] is “inactive; negative”.
For `CC(C)=CCOc1c2occc2cc2ccc(=O)oc12`, the mutagenic call reads like this: (Species/Cell Type: Human lymphocytes, Assay Type: Sister-chromatid exchange (SCE) in vitro, Assay Code: SCL+, Evaluation Type: Evaluation B (Post-1980)) “active; positive”; (Species/Cell Type: Human, Assay Type: Sister-chromatid exchange (SCE) in vitro, Assay Code: SC1+, Evaluation Type: Evaluation B (Post-1980)) “active; positive”.
`O=S(=O)(O)CCS`: the mutagenic call by setting is: (Species/Cell Type: Human lymphocytes, Assay Type: Sister-chromatid exchange (SCE) in vitro, Assay Code: SCLT, Evaluation Type: Evaluation B (Post-1980)) “no conclusion”; under setting [5], “no conclusion”.
In the case of `CN1CCN(c2ccc([N+](=O)[O-])c3no[n+]([O-])c23)CC1`, under setting [3], the mutagenic call is “active; positive”.
Turning to `Cc1cccc(-c2ccc(N)cc2C)c1`, the mutagenic call (Species/Cell Type: Syrian hamster embryo (SHE) cells, Assay Type: Cell transformation, clonal assay, Assay Code: CTC+, Evaluation Type: Evaluation A (Pre-1980)) was “active; positive”.
With `CCCN(CCC)S(=O)(=O)c1ccc(C(=O)O)cc1`, where the note is “Species/Cell Type: Saccharomyces cerevisiae, Assay Type: Mitotic recombination or gene conversion, Assay Code: YEC-*, Activation: With metabolic activation, Evaluation Type: Evaluation A (Pre-1980)”, the mutagenic call was “inactive; negative”.
With `O=C(O)c1ccccc1N=Nc1c(O)c(S(=O)(=O)O)cc2cc(S(=O)(=O)O)ccc12`, the mutagenic call under setting [7] is recorded as “no conclusion”.
On to `Cc1ccc(N=Nc2c(O)c(C(=O)O)cc3ccccc23)c(S(=O)(=O)O)c1`, for which the mutagenic call under setting [7] is on record as “no conclusion”.
`CCN(Cc1cccc(S(=O)(=O)O)c1)c1ccc(C(=C2C=CC(=[N+](CC)Cc3cccc(S(=O)(=O)[O-])c3)C=C2)c2ccc(S(=O)(=O)O)cc2)cc1`: the mutagenic call runs as follows: under setting [8], “no conclusion”; (Species/Cell Type: Bacillus subtilis (H17 vs M45T), Assay Type: Rec-assay, spot test, DNA effects (bacterial DNA repair), Assay Code: REXT, Evaluation Type: Evaluation A (Pre-1980)) “no conclusion”; under setting [9], “inactive; negative”.
Regarding `CN(N=O)C(=O)c1ccc(C(=O)N(C)N=O)cc1`, the mutagenic call by setting is: (Species/Cell Type: Arabidopsis species, Assay Type: Gene mutation, Assay Code: ARM-, Evaluation Type: Evaluation A (Pre-1980)) “inactive; negative”; (Species/Cell Type: Saccharomyces cerevisiae, Assay Type: Mitotic recombination or gene conversion, Assay Code: YEH+, Evaluation Type: Evaluation A (Pre-1980)) “active; positive”; (Species/Cell Type: Saccharomyces cerevisiae, Assay Type: Reverse gene mutation, Assay Code: YER-, Evaluation Type: Evaluation A (Pre-1980)) “inactive; negative”.
On to `COc1cc2c(c3oc(=O)c4c(c13)CCOC4=O)[C@@H]1C=CO[C@@H]1O2`, for which the mutagenic call is, setting by setting: (Species/Cell Type: Bacillus subtilis (H17 vs M45), Assay Type: Rec-assay, spot test, DNA effects (bacterial DNA repair), Assay Code: REW+, Evaluation Type: Evaluation A (Pre-1980)) “active; positive”; (Species/Cell Type: Human diploid fibroblasts, Assay Type: Unscheduled DNA synthesis (UDS) in vitro, DNA effects, Assay Code: UDH+, Evaluation Type: Evaluation A (Pre-1980)) “active; positive”; (Species/Cell Type: Neurospora crassa, Assay Type: Forward gene mutation, Assay Code: NEF+, Evaluation Type: Evaluation A (Pre-1980)) “active; positive”; (Species/Cell Type: Nonhuman, Assay Type: Sister-chromatid exchange (SCE) in vitro, Assay Code: SC2+D*, Activation: With metabolic activation, Dose Response: With dose response, Evaluation Type: Evaluation B (Post-1980)) “active; positive”; (Species/Cell Type: Rat primary hepatocytes, Assay Type: Unscheduled DNA synthesis (UDS) in vitro, DNA effects, Assay Code: UDP+, Evaluation Type: Evaluation A (Pre-1980)) “active; positive”; under setting [6], “inactive; negative”. For the setting “Species/Cell Type: Salmonella typhimurium (one or more of the five standard strains: TA98, TA100, TA1535, TA1537, and TA1538), Assay Type: Histidine reverse gene mutation, Ames assay, Assay Code: SAL+*, Activation: With metabolic activation, Evaluation Type: Evaluation A (Pre-1980)”, the mutagenic call was “active; positive”. Further, for the setting “Species/Cell Type: Nonhuman, Assay Type: In vivo carcinogenicity studies, Assay Code: CCG+L, Evaluation Type: Evaluation A (Pre-1980)”, the call is “active; positive”.
For the compound `COCCOS(C)(=O)=O`, the mutagenic call was “active; positive” (Species/Cell Type: Arabidopsis species, Assay Type: Gene mutation, Assay Code: ARM+D, Dose Response: With dose response, Evaluation Type: Evaluation A (Pre-1980)) and “active; positive” (Species/Cell Type: Hordeum vulgare (barley), Assay Type: Chromosome aberrations, Assay Code: HOC+D, Dose Response: With dose response, Evaluation Type: Evaluation A (Pre-1980)).
Take `O=C(O)[C@@H]1[C@H](C(=O)O)[C@H]2CC[C@@H]1O2`: the mutagenic call under setting [1] is “active; positive”.
As for `O=S(=O)(O)c1c(N=Nc2c(O)ccc3ccccc23)ccc2ccccc12`, under setting [9], the mutagenic call is “inactive; negative”.
In the case of `O=C(Cl)c1ccccc1`, the mutagenic call under setting [8] is given as “no conclusion”.
On to `CCCOc1nc2c(c(=O)n(C)c(=O)n2C)n1C`, for which the mutagenic call (Species/Cell Type: Allium cepa, Assay Type: Chromosome aberrations, Assay Code: ALC+D, Dose Response: With dose response, Evaluation Type: Evaluation A (Pre-1980)) is “active; positive”.
In the case of `NC(=O)c1cccc(N)c1`, the mutagenic call by setting is: (Species/Cell Type: Chinese hamster ovary (CHO) cells, Assay Type: Forward gene mutation at the HPRT locus, Assay Code: CHOT, Evaluation Type: Evaluation B (Post-1980)) “no conclusion”; under setting [10], “active; positive”; under setting [4], “active; positive”.
Regarding `Clc1ccc(C(c2ccccc2Cl)C(Cl)(Cl)Cl)cc1` (centres undefined), the mutagenic call (Species/Cell Type: Nonhuman, Assay Type: Chromosome aberrations in vitro, Assay Code: CY&+, Evaluation Type: Evaluation A (Pre-1980)) was “active; positive”.
`C/C=C/c1ccccc1`: the mutagenic call reads like this: (Species/Cell Type: Human lymphocytes, Assay Type: Sister-chromatid exchange (SCE) in vitro, Assay Code: SCL+D, Dose Response: With dose response, Evaluation Type: Evaluation B (Post-1980)) “active; positive”; under setting [10], “active; positive”.
As for `CN(C)c1ccc(C#N)cc1`, under “Species/Cell Type: Mammalian polychromatic erythrocytes, Assay Type: Micronucleus test, chromosome aberrations, Assay Code: MNTT, Evaluation Type: Evaluation B (Post-1980)”, the mutagenic call is “no conclusion”.
`O=C1C(=O)c2ccccc2-c2ccccc21`: the mutagenic call (Species/Cell Type: Allium cepa, Assay Type: Chromosome aberrations, Assay Code: ALC-, Evaluation Type: Evaluation A (Pre-1980)) was “inactive; negative”.
